Experimental data as given in patent US12295973B2 (Fred Hutchinson Cancer Center, priority 2017, dated 2025).
Where a SMILES comes first, the peptide text is derived from it. [ ]: non-standard residue; d: D form. The star is where a group is joined. dPhe(4-NHCONH2) = NC(=O)Nc1ccc(C[C@@H](N)C(=O)O)cc1; Dihydroorotyl(S) = O=C1C[C@@H](C(=O)*)NC(=O)N1; dPhe(4-Cl) = N[C@H](Cc1ccc(Cl)cc1)C(=O)O; Phe(4-NH2) = Nc1ccc(C[C@H](N)C(=O)O)cc1; d2Nal = N[C@H](Cc1ccc2ccccc2c1)C(=O)O; Lys(iPr) = CC(C)NCCCC[C@H](N)C(=O)O; d3Pal = N[C@H](Cc1cccnc1)C(=O)O

Legend:
mice exposed to L-TBI = test: Complete blood counts (peripheral blood recovery) after L-TBI; assay type: in vivo, mouse; settings: vs vehicle
Excerpt: Description. Inhibition of sex steroids, which can be achieved in a reversible fashion pharmacologically, is a well-described strategy to promote lymphopoiesis in the BM and thymus^8,7,14,15. Although the most common method of sex steroid ablation clinically has been to use LHRH-agonists, it was described that an LHRH-Antagonist represents a more rational approach to promote immediate ablation of sex steroids for immune regeneration as it is far more rapid and abrogates the initial surge in sex steroids that LHRH-Agonist cause^16. Taken together with the impact of sex steroid inhibition on HSC function and the rapid regenerative effects of LHRH-Ant, it was hypothesized that LHRH-Ant could represent a rational non-cellular medical countermeasure for mitigating radiation injury and promoting hematopoietic regeneration when administered after hematopoietic insult. To test this hypothesis, a lethal TBI (L-TBI) dose of 840cGy that mediated lethality in more than 90% of mice (FIG. 1A) was used. […] Mouse lethality was a result of bone marrow failure, since transplant of BM Lin-Sca1^+tkit^+ (LSK) cells 3 days after L-TBI completely rescued all mice (FIG. 1B). […] It was then tested if LHRH-Ant could mediate even greater mouse survival when administered multiple times.
Methods. […] To assess mouse survival after radiation, mice were monitored for up to 60 days after TBI. […]

LT-HSCs = test: Gene expression in LT-HSCs purified after 300cGy irradiation; assay type: in vivo, mouse
Experimental: To gain some insights in to the molecular changes mediated by LHRH-Ant treatment on HSCs LT-HSCs were purified after 300cGy irradiation and expression of key genes associated with quiescence, proliferation, DNA damage response and apoptosis of HSCs was assessed. […] Importantly, both Bcl-2 and Mcl-1 have been implicated in regulating HSC quiescence and survival respectively^45,46.
Real time PCR: Reverse transcription-PCR was performed with QuantiTect reverse transcription kit (QIAGEN). For real-time PCR, specific primer and probe sets were obtained from Applied Biosystems as follows: β-actin (Mm01205647_g1); HPRT (Mm00446968_m1); AR (Mm00442688_m1); FSHR (Mm00442819_m1); LHCGR (Mm00442931_m1). PCR was done on ABI 7500 (Applied Biosystems) or Step-One Plus (Applied Biosystems) with TaqMan Universal PCR Master Mix (Applied Biosystems). Relative amounts of mRNA were calculated by the Ct method.
Statistics: Bars and error bars represent the mean+SEM for the various groups. For most experiments, nonparametric testing was performed if normal distribution could not be assumed. All tests performed are two sided. Statistical analysis between two groups was performed with the nonparametric, unpaired Mann-Whitney U test. Tests performed are two sided, except for gene category analysis. Differential expression of gene categories was computed using Fisher's method and the input p-value for each individual gene from a category is computed from a one sided test. Survival data were analyzed with the Mantel-Cox log-rank test. Parametric t test was used for FIG. 6H right panel. The experiments were not randomized and the investigators were not blinded to the group allocation during the experiments or when assessing the outcomes. To ensure adequate power for statistical analysis at least five samples per group were tested. In general variation within groups and between experiments was low, however to take into account inter-experimental variation all experiments were performed at least twice. To account for intra-experimental variation, particularly for in vitro studies, several wells per conditions were assessed with primary sample material coming from at least two different mice. No samples or animals were excluded from the analysis except for mouse peripheral blood analysis where outliers were detected prior to the analysis with two-sided Grubbs' test for outliers (GraphPad). All statistics were calculated and display graphs generated using GraphPad 6.

CC(=O)N[C@H](Cc1ccc2ccccc2c1)C(=O)N[C@H](Cc1ccc(Cl)cc1)C(=O)N[C@H](Cc1cccnc1)C(=O)N[C@@H](CO)C(=O)N[C@@H](Cc1ccc(NC(=O)[C@@H]2CC(=O)NC(=O)N2)cc1)C(=O)N[C@H](Cc1ccc(NC(N)=O)cc1)C(=O)N[C@@H](CC(C)C)C(=O)N[C@@H](CCCCNC(C)C)C(=O)N1CCC[C@H]1C(=O)N[C@H](C)C(N)=O [LHRH-Ant, Degarelix] (Ac-[d2Nal][dPhe(4-Cl)][d3Pal]S[Phe(4-NH2)](Dihydroorotyl(S))[dPhe(4-NHCONH2)]L[Lys(iPr)]P[dA]-NH2)
complete blood counts recovery after L-TBI (mice exposed to L-TBI): recovered after L-TBI
expression level of Cdknla (p21) (LT-HSCs): significantly higher levels
expression level of Hest (LT-HSCs): significantly higher levels
expression of anti-apoptotic gene Bcl2 (LT-HSCs): significantly increased
expression of anti-apoptotic gene Mcl1 (LT-HSCs): significantly increased
expression of genes related to apoptosis (LT-HSCs; p=0.004): significant overexpression
expression of genes related to quiescence (LT-HSCs; p=0.02): significant overexpression
